Where no end group is shown, it is not given here. [ ]: non-standard residue; d: D form.
Legend:
[1] = system: subjects suspected of having or diagnosed as having DMD; test: Treatment of DMD in humans (Example 1); format: in vivo, human; conditions: for Effect of combination with one or more additional therapeutic agents: compared to peptides or additional agents alone, expected; for Severity of symptoms associated with DMD: daily 1%, 5% or 10% solution, predicted
Excerpt: (§1) Subjects suspected of having or diagnosed as having DMD receive daily administrations of 1%, 5% or 10% solution of aromatic-cationic peptide, such as 2′6′-Dmt-D-Arg-Phe-Lys-NH2, Phe-D-Arg-Phe-Lys-NH2, or D-Arg-2′6′-Dmt-Lys-Phe-NH2, or a pharmaceutically acceptable salt thereof, such as acetate, tartrate, hydrochloride salt, or trifluoroacetate salt, alone or in combination with one or more additional therapeutic agents for the treatment or prevention of DMD. Peptides and/or additional therapeutic agents selected from the group consisting of: corticosteroids, Oxandrolone, ACE inhibitors, P188(Poloxamer 188), beta-blockers, diuretics, angiotensin receptor blockers (ARBs), idebenone, alendronate, calcium with vitamin D, albuterol, dantrolene, pentoxifylline, carnitine, Coenzyme Q10, creatine, fish oil, green tea extracts, Vitamin E, PTC-124 (PTC Therapeutics Inc., South Plainfield, N.J.), AVI-4658 phosphorodiamidate morpholino oligomer, azathioprine and cyclosporine, are administered orally, topically, systemically, intravenously, subcutaneously, intraperitoneally, or intramuscularly according to methods known in the art. Dosages of the one or more additional therapeutic agents will range between 0.1 mg/kg to 50 mg/kg. Subjects will be evaluated weekly for the presence and/or severity of signs and symptoms associated with DMD, including, but not limited to, e.g., progressive proximal weakness with onset in the legs and pelvis, hyperlordosis with wide-based gait, hypertrophy of weak muscles, pseudohypertrophy (enlargement of calf and deltoid muscles with fat and fibrotic tissue), reduced muscle contractility on electrical stimulation in advanced stages of the disease, delayed motor milestones, progressive inability to ambulate, heel cord contractures, paralysis, fatigue, skeletal deformities including scoliosis, muscle fiber deformities, cardiomyopathy, congestive heart failure or arrhythmia, muscular atrophy, and respiratory disorders. Treatments are maintained until such a time as one or more signs or symptoms of DMD are ameliorated or eliminated.

[2] = system: subjects at risk of having DMD; test: Prevention of DMD in humans (Example 2); format: in vivo, human; conditions: for Effect of combination with one or more additional therapeutic agents: compared to peptides or additional agents alone, expected; for Onset of DMD: daily 1%, 5% or 10% solution, predicted
Excerpt: as §1, with “at risk” for “suspected”, “of” for “of having or diagnosed as”, “P188 (Poloxamer” for “P188(Poloxamer”, “disorders.” for “disorders. Treatments are maintained until such a time as one or more signs or symptoms of DMD are ameliorated or eliminated.”

DBA/2J-mdx mice [3] = test: Left ventricular mitochondrial H2O2 emission in permeabilized muscle fiber bundles (spectrofluorometry, Amplex UltraRed) after 12 weeks of treatment; format: in vivo, mouse; conditions: 5 mg/kg daily subcutaneous for 12 weeks
Experimental: (§2) Left ventricular mitochondrial H2O2 emission (measured by spectrofluorometry; Amplex UltraRed fluorophore) and respiration (measured by high-resolution respirometry; Oroboros Oxygraph) were assessed in permeabilized muscle fiber bundles (PmFB) from DBA/2J-mdx mice (DMD mice) that were about 4 weeks of age, DBA/2J wildtype mice (wt mice) that were about 4 weeks of age, DMD mice treated with daily subcutaneous injections of Phe-D-Arg-Phe-Lys-NH2 (5mg/kg) for 12 weeks (treated DMD mice), and DMD mice treated with daily subcutaneous injections of […] for 12 weeks (untreated DMD mice). H2O2 emission was measured in the presence of physiological ADP (25 μM). ADP is a suppressor of H2O2 emission during respiration and is affected by the phosphate-shuttling activity of mitochondrial creatine kinase (mtCK). The effect of mtCK was assessed by saturating creatine (Cr) in vitro.

DBA/2J-mdx mice [4] = test: Left ventricular mitochondrial respiration in permeabilized muscle fiber bundles (high-resolution respirometry, Oroboros Oxygraph) after 12 weeks of treatment; format: in vivo, mouse; conditions: 5 mg/kg daily subcutaneous for 12 weeks; for ADP, complex I-supported respiration: treated DMD mice
Experimental: as §2

[5] = system: several mammalian cell types; conditions: cited from earlier work

Substance | Effect of combination with one or more additional therapeutic agents [1] | Severity of symptoms associated with DMD [1] | Effect of combination with one or more additional therapeutic agents [2] | Onset of DMD [2] | mtCK-dependent ADP suppression of H2O2 emission, treated vs untreated DMD mice (DBA/2J-mdx mice [3]) | ADP-suppression of Complex I-supported H2O2, % of emission at 0 μM ADP/O2 consumed (DBA/2J-mdx mice [3]; +Cr, 25 μM ADP, treated DMD mice) | ADP-suppression of Complex I-supported H2O2, % of 0 μM ADP/O2 consumed (DBA/2J-mdx mice [3]; —Cr, 25 μM ADP, treated DMD mice) | Respiration, treated vs untreated DMD mice (DBA/2J-mdx mice [4]; +Cr or —Cr) | ADP, complex I-supported respiration (DBA/2J-mdx mice [4]; +Cr) | ADP, complex I-supported respiration (DBA/2J-mdx mice [4]; —Cr) | Penetration of the plasma membrane [5]
D-Arg-2′6′-Dmt-Lys-Phe-NH2 | synergistic effects | reduced severity or elimination of symptoms associated with DMD | synergistic effects | delayed onset of DMD, or prevention of onset of DMD | – | – | – | – | – | – | –
F[dR]FK-NH2 | synergistic effects | reduced severity or elimination of symptoms associated with DMD | synergistic effects | delayed onset of DMD, or prevention of onset of DMD | improved | 12+/−1% | 40+/−11% | did not change respiration | 111.4+/−12.0 pmol•s^−1•mg wet wt^−1 | 59.6+/−7.4 pmol•s^−1•mg wet wt^− | –
2′6′-Dmt-D-Arg-Phe-Lys-NH2 | synergistic effects | reduced severity or elimination of symptoms associated with DMD | synergistic effects | delayed onset of DMD, or prevention of onset of DMD | – | – | – | – | – | – | readily penetrates the plasma membrane of several mammalian cell types in an energy-independent manner

— US20190022167A1, “METHODS AND COMPOSITIONS FOR THE PREVENTION AND TREATMENT OF DUCHENNE MUSCULAR DYSTROPHY” (priority 2016, published 2019)
